Consider 29 molecules from ChEMBL document CHEMBL4831511, “Fluorovinylsulfones and -Sulfonates as Potent Covalent Reversible Inhibitors of the Trypanosomal Cysteine Protease Rhodesain: Structure-Activity Relationship, Inhibition Mechanism, Metabolism, and In Vivo Studies” (J Med Chem, 2021).

The source made the active and inactive calls. The calls are words filed in the database; no cut-off is given here.

The target in data set [1] is T1, Rhodesain (Trypanosoma brucei rhodesiense, UniProt Q95PM0). As to the kind of experiment: Inhibition of Trypanosoma brucei rhodesain assessed as fluorescence using Cbz-Phe-Arg-AMC as substrate measured at second inhibition step by fluorometric enzyme assays.
Data set [2] relates to J774.1. As to the kind of experiment: Cytotoxicity against mouse J774.1 cells by Alamar blue assay. Format: functional.
Data set [3] relates to HeLa. As to the kind of experiment: Cytotoxicity against human HeLa cells by Alamar blue assay. Format: functional.
Data set [4] deals with Trypanosoma brucei brucei. As to the kind of experiment: Antiprotozoal activity against Trypanosoma brucei brucei BS449 assessed as luminescence incubated for 24 to 48 hrs by ATPlite assay. Format: functional, organism-based. In general terms: Cellular ATP, detected with luciferase, serves as a proxy for viable cell number.
Data set [5] addresses Cathepsin B (Homo sapiens, UniProt P07858). As to the kind of experiment: Inhibition of human liver CatB assessed as fluorescence using Cbz-Phe-Arg-AMC as substrate at 11 uM by fluorometric enzyme assays.
The target of data set [6] is T2, Procathepsin L (Homo sapiens, UniProt P07711). As to the kind of experiment: Inhibition of human liver CatL assessed as fluorescence using Cbz-Phe-Arg-AMC as substrate measured at second inhibition step by fluorometric enzyme assays.
Data set [7] concerns cathepsin L (CatL) versus rhodesain. As to the kind of experiment: Selectivity index, ratio of Ki for human liver CatL to Trypanosoma brucei rhodesain. Particulars: read-out: Selectivity Index.
The target in data set [8] is T1, Rhodesain. As to the kind of experiment: Inhibition of Trypanosoma brucei rhodesain assessed as fluorescence using Cbz-Phe-Arg-AMC as substrate measured using Dixon equation by fluorometric enzyme assays.
The target in data set [9] is Rhodesain (Trypanosoma brucei rhodesiense) (UniProt Q95PM0). As to the kind of experiment: Inhibition of Trypanosoma brucei rhodesain assessed as rate constant of association using Cbz-Phe-Arg-AMC as substrate by fluorometric enzyme assays.
Data set [10] shares this target. As to the kind of experiment: Inhibition of Trypanosoma brucei rhodesain assessed as rate constant of dissociation of the final complex using Cbz-Phe-Arg-AMC as substrate by fluorometric enzyme assays.
Data set [11] is filed under the species Homo sapiens. As to the kind of experiment: Inhibition of caspase-like activity of human 20S proteasome at 11 uM using Cbz-Leu-Leu-Glu-AMC as fluorogenic substrate by microplate reader relative to control.
Data set [12] concerns the target Proteasome Macropain subunit (Homo sapiens) (UniProt P49721). As to the kind of experiment: Inhibition of trypsin-like activity of human 20S proteasome at 11 uM using boc-Leu-Arg-Arg-AMC as fluorogenic substrate by microplate reader relative to control.
Data set [13] is filed under the species Homo sapiens. As to the kind of experiment: Inhibition of alpha-chymotrypsin-like activity of human 20S proteasome at 11 uM using Succ-Leu-Leu-Val-Tyr-AMC as fluorogenic substrate by microplate reader relative to control.
The target in data set [14] is T2, Procathepsin L. As to the kind of experiment: Inhibition of human CatL assessed as fluorescence using Cbz-Phe-Arg-AMC as substrate measured using Dixon equation by fluorometric enzyme assays. The arrangement: species or system Liver.
The target in data set [15] is Rhodesain (Trypanosoma brucei rhodesiense) (UniProt Q95PM0). As to the kind of experiment: Binding affinity to Trypanosoma brucei rhodesain assessed as protein-ligand adducts by MALDI-TOF MS analysis.
Data set [16] has as its system Dengue virus. As to the kind of experiment: Inhibition of Dengue virus NS2B-NS3 protease assessed as fluorescent emission using boc-Gly-Arg-Arg-AMC at 11 uM by microplate reader relative to control.

T2 sequence (P07711 whole entry): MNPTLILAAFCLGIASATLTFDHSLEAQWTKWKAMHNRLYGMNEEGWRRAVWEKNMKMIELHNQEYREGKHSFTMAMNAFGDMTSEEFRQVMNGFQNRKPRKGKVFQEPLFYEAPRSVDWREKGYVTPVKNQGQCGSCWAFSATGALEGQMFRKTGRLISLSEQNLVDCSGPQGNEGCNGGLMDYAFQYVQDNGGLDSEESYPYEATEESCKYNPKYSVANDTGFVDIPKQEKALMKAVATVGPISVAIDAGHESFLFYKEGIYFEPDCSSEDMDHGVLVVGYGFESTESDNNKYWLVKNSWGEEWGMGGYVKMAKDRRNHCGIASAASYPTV
T1 sequence (Q95PM0 whole entry): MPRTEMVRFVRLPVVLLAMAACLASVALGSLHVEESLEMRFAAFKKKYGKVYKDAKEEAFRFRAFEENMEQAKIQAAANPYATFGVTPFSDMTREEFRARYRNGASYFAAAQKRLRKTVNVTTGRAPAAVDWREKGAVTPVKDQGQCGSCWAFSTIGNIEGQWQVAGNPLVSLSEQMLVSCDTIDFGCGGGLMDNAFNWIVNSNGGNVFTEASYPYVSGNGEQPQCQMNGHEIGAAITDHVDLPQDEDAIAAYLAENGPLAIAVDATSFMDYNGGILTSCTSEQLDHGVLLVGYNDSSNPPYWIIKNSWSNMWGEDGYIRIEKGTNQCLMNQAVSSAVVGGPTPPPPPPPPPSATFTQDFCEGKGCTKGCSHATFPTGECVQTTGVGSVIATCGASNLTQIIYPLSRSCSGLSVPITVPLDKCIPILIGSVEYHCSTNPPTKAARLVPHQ
Sequence of Rhodesain (Trypanosoma brucei rhodesiense) (Q95PM0 1-450): as the sequence (Q95PM0 whole entry) above
Sequence of Proteasome Macropain subunit (Homo sapiens) (P49721 whole entry): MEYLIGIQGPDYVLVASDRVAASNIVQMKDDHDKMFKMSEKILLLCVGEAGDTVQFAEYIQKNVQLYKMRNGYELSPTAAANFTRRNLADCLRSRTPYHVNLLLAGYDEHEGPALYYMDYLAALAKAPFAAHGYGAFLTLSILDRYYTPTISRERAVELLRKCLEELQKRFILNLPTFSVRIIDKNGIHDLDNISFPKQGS

As to `Cc1cccc(C[C@H](NC(=O)c2cc(F)cc(F)c2)C(=O)N[C@H](/C=C(\F)S(=O)(=O)c2ccccc2)CCc2ccccc2)c1`, the Ki (commonly a measure of affinity in units of concentration, obtained from inhibition or displacement) in data set [1] came to 0.329 µM.

For the molecule `CN1CCN(C(=O)N[C@@H](Cc2ccccc2)C(=O)N[C@H](/C=C/S(=O)(=O)c2ccccc2)CCc2ccccc2)CC1` [K-777], the CC50 – broadly, the concentration that lowers cell viability or growth by half – in data set [2] was 41 µM; in [3] it was more than 10 µM. In [4], the concentration giving a half-maximal response (EC50) (in general, the concentration giving half of the maximal effect) was 0.18 µM.

For `Cc1ccc(C[C@H](NC(=O)c2ccc3c(c2)OCCO3)C(=O)N[C@H](/C=C(\F)S(=O)(=O)Cc2ccccc2)CCc2ccccc2)cc1`, the inhibition constant Ki in data set [1] worked out at 0.014 µM; in data set [6], 0.076 µM. Besides, the inhibition – broadly, the drop in the measured response relative to a control, in per cent – in data set [5] was 8%. The selectivity ratio in [7] came to 6.

For `Cc1ccc(C[C@H](NC(=O)c2cc(F)cc(F)c2)C(=O)N[C@H](/C=C(\F)S(=O)(=O)Oc2ccccc2)CCc2ccccc2)cc1`, the inhibitory constant (Ki) amounted to 0.034 µM in data set [1] and 0.005 µM in data set [8]. The results for the K in [9] and in [10] were 0.049 s⁻¹ and 0.009 s⁻¹, respectively.

On to `CSCC[C@@H](/C=C(\F)S(=O)(=O)c1ccccc1)NC(=O)[C@H](Cc1ccccc1)NC(=O)N1CCN(C)CC1`, for which the CC50 in data set [2] is 43 µM; in data set [3], 77 µM. The inhibition in data set [11] is 18%. Besides, the inhibition result in data set [12] and in data set [13] was “inactive” throughout. In data set [4], the half-maximal effective concentration (EC50) amounted to 14.1 µM.

Consider `O=C(N[C@@H](Cc1ccccc1)C(=O)N[C@H](/C=C(\F)S(=O)(=O)Cc1ccccc1)CCc1ccccc1)c1ccncc1`, for which the Ki in data set [1] stood at 0.053 µM; in [6] it was 0.226 µM. For the same molecule, the inhibition in [5] is 44%.

In the case of `Cc1cccc(C[C@H](NC(=O)c2ccncc2)C(=O)N[C@H](/C=C(\F)S(=O)(=O)Oc2ccccc2)CCc2ccccc2)c1`, the inhibition constant (Ki) in data set [1] amounted to 0.094 µM; in [8] it was 0.007 µM; in data set [14], 0.03 µM; in data set [6], 0.266 µM. Also, the K in data set [9] is 0.062 s⁻¹; in data set [10], 0.005 s⁻¹. Also, the inhibition in [5] turned out to be 50%. Further, in [7], the selectivity ratio was 4.

As to `O=C(N[C@@H](Cc1ccccc1)C(=O)N[C@H](/C=C(\F)S(=O)(=O)c1ccccc1)CCc1ccccc1)c1cc(F)cc(F)c1`, the Ki in data set [1] worked out at 0.35 µM.

As to `Cc1cccc(C[C@H](NC(=O)c2ccc3c(c2)OCCO3)C(=O)N[C@H](/C=C(\F)S(=O)(=O)Oc2ccccc2)CCc2ccccc2)c1`, the inhibition constant (Ki) in [1] came out at 0.059 µM; in data set [8] it was 0.01 µM. The K in data set [9] stood at 0.074 s⁻¹; in data set [10], 0.015 s⁻¹.

For the molecule `Cc1cccc(C[C@H](NC(=O)c2ccc3c(c2)OCCO3)C(=O)N[C@H](/C=C(\F)S(=O)(=O)Cc2ccccc2)CCc2ccccc2)c1`, in [1], the Ki turned out to be 0.092 µM.

In turn, `O=C(N[C@@H](Cc1ccccc1)C(=O)N[C@H](/C=C(\F)S(=O)(=O)c1ccccc1)CCc1ccccc1)c1ccc2c(c1)OCCO2` gave an inhibition in data set [11] of 26%. Further, the inhibition result in [12] and in [13] was “inactive” each time.

As to `CN1CCN(C(=O)N[C@@H](Cc2ccccc2)C(=O)N[C@H](/C=C(\F)S(=O)(=O)c2ccccc2)CCc2ccccc2)CC1`, the figures for the CC50 in data set [2] and in [3] were 38 µM and 10 µM, respectively. Besides, the inhibition amounted to 16% in data set [11] and 13% in [13]. For the same molecule, the inhibition entry in data set [12] and in data set [16] was “inactive” throughout. Besides, the outcome in data set [15] was Active. Also, in data set [4], the EC50 amounted to 12.5 µM.

As to `CN1CCN(C(=O)N[C@@H](Cc2ccccc2)C(=O)N[C@H](/C=C(\F)S(=O)(=O)Oc2ccccc2)CCc2ccccc2)CC1`, the inhibition constant Ki in data set [1] worked out at 0.108 µM. The outcome in data set [15] was Active.

As for `Cc1cccc(C[C@H](NC(=O)c2ccc3c(c2)OCCO3)C(=O)N[C@H](/C=C(\F)S(=O)(=O)c2ccccc2)CCc2ccccc2)c1`, the Ki in data set [1] is 0.035 µM.

On to `O=C(N[C@@H](Cc1ccccc1)C(=O)N[C@H](/C=C(\F)S(=O)(=O)Oc1ccccc1)CCc1ccccc1)c1ccc2c(c1)OCCO2`, for which the Ki is 0.045 µM in data set [1] and 0.009 µM in [8]. The K in data set [9] came out at 0.045 s⁻¹; in data set [10], 0.011 s⁻¹.

Take `O=C(N[C@H](/C=C(\F)S(=O)(=O)Oc1ccccc1)CCc1ccccc1)[C@H](Cc1ccccc1)NC(=O)N1CCNCC1`: the inhibitory constant (Ki) in data set [1] turned out to be 0.192 µM.

With `Cc1ccc(C[C@H](NC(=O)c2cc(F)cc(F)c2)C(=O)N[C@H](/C=C(\F)S(=O)(=O)c2ccccc2)CCc2ccccc2)cc1`, the inhibitory constant (Ki) in data set [1] is 0.1 µM.

On to `Cc1cccc(C[C@H](NC(=O)c2ccncc2)C(=O)N[C@H](/C=C(\F)S(=O)(=O)Cc2ccccc2)CCc2ccccc2)c1`, for which the inhibition constant (Ki) in data set [1] turned out to be 0.061 µM; in data set [6], 0.122 µM. Moreover, in data set [7], the selectivity ratio amounted to 2.

Regarding `Cc1ccc(C[C@H](NC(=O)c2cc[n+]([O-])cc2)C(=O)N[C@H](/C=C/S(=O)(=O)Oc2ccccc2)CCc2ccccc2)cc1`, the inhibition constant Ki in data set [1] amounted to 0.0015 µM.

With `Cc1ccc(C[C@H](NC(=O)c2ccncc2)C(=O)N[C@H](/C=C/S(=O)(=O)Oc2ccccc2)CCc2ccccc2)cc1`, the Ki in data set [1] came out at 0.00045 µM.

With `Cc1cccc(C[C@H](NC(=O)c2ccncc2)C(=O)N[C@H](/C=C(\F)S(=O)(=O)c2ccccc2)CCc2ccccc2)c1`, the Ki in data set [1] is 0.025 µM; in data set [6], 0.049 µM.

Regarding `Cc1ccc(C[C@H](NC(=O)c2cc(F)cc(F)c2)C(=O)N[C@H](/C=C(\F)S(=O)(=O)Cc2ccccc2)CCc2ccccc2)cc1`, the inhibitory constant (Ki) in data set [1] worked out at 0.029 µM.

In the case of `Cc1cccc(C[C@H](NC(=O)c2cc(F)cc(F)c2)C(=O)N[C@H](/C=C(\F)S(=O)(=O)Oc2ccccc2)CCc2ccccc2)c1`, the Ki worked out at 0.152 µM in data set [1] and 0.021 µM in data set [8]. Also, the values for the K in [9] and in data set [10] were 0.055 s⁻¹ and 0.01 s⁻¹, respectively.

Regarding `O=C(N[C@@H](Cc1ccccc1)C(=O)N[C@H](/C=C(/F)S(=O)(=O)Oc1ccccc1)CCc1ccccc1)c1ccncc1`, the Ki in data set [1] was 0.525 µM. In data set [15], the outcome was Active.

For `Cc1cccc(C[C@H](NC(=O)c2cc(F)cc(F)c2)C(=O)N[C@H](/C=C(\F)S(=O)(=O)Cc2ccccc2)CCc2ccccc2)c1`, in data set [1], the Ki stood at 0.38 µM.

Turning to `O=C(N[C@@H](Cc1ccccc1)C(=O)N[C@H](/C=C(\F)S(=O)(=O)Cc1ccccc1)CCc1ccccc1)c1ccc2c(c1)OCCO2`, the inhibitory constant (Ki) in data set [1] turned out to be 0.046 µM.

Turning to `CN1CCN(C(=O)N[C@@H](Cc2ccccc2)C(=O)N[C@H](/C=C(\F)S(=O)(=O)c2ccccc2)CSCc2ccccc2)CC1`, the values for the cytotoxic concentration (CC50) in data set [2] and in [3] were 8.7 µM and 8 µM, respectively. In addition, the inhibition result in data set [11] is “inactive”. Moreover, the inhibition in data set [12] was found to be 14%; in data set [13], 71%; in [16] it was 13%. Moreover, the EC50 in data set [4] was 3 µM.

As for `O=C(N[C@@H](Cc1ccccc1)C(=O)N[C@H](/C=C(\F)S(=O)(=O)Oc1ccccc1)CCc1ccccc1)OCc1ccccc1`, the Ki in [1] was 0.158 µM. Besides, the outcome in [15] was Active.

As for `O=C(N[C@@H](Cc1ccccc1)C(=O)N[C@H](/C=C(\F)S(=O)(=O)Cc1ccccc1)CCc1ccccc1)c1cc(F)cc(F)c1`, the Ki in [1] is 0.124 µM.
